Test results published in article PMC10222858 (Marine Drugs, 2023).
Where a SMILES comes first, the peptide text is derived from it.

Experiments:
rα6/α3β4 nAChRs = rα6/α3β4 nAChRs (Rattus norvegicus, UniProt P04757+P12392+P43143); test: cell-based; assay type: cell-based
rα3β4 nAChRs = rα3β4 nAChRs (Rattus norvegicus, UniProt P04757+P12392); test: cell-based; assay type: cell-based
rα3β4 nAChRs, sequence (P04757 26-499 limits assumed): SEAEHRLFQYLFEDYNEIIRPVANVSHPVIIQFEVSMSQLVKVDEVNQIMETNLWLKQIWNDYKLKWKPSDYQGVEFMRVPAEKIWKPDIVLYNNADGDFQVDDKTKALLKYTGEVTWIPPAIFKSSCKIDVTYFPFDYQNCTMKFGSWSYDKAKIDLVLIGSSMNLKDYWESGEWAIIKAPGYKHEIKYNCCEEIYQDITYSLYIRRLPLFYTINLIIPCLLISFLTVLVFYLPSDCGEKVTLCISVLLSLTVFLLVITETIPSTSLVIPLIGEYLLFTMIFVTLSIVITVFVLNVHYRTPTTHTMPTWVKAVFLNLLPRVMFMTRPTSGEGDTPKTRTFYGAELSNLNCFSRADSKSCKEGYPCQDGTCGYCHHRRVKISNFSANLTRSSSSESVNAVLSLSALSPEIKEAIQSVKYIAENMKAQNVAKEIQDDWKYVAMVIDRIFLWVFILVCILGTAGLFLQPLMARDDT
rα3β4 nAChRs, sequence (P12392 21-495 limits assumed): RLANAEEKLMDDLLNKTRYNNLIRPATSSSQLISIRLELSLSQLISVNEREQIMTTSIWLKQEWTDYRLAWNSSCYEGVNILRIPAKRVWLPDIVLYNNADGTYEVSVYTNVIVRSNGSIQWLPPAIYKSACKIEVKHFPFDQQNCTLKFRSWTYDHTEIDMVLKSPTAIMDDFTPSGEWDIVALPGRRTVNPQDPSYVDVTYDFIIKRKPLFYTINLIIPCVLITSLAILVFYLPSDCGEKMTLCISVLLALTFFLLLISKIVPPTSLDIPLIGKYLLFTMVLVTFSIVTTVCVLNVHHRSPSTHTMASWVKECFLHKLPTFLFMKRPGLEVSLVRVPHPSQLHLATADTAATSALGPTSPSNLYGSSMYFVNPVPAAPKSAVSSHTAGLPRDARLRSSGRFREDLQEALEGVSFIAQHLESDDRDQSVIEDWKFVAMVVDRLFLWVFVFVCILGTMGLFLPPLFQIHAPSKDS

rα6/α3β4 nAChRs, sequence (P04757 whole entry, looked up): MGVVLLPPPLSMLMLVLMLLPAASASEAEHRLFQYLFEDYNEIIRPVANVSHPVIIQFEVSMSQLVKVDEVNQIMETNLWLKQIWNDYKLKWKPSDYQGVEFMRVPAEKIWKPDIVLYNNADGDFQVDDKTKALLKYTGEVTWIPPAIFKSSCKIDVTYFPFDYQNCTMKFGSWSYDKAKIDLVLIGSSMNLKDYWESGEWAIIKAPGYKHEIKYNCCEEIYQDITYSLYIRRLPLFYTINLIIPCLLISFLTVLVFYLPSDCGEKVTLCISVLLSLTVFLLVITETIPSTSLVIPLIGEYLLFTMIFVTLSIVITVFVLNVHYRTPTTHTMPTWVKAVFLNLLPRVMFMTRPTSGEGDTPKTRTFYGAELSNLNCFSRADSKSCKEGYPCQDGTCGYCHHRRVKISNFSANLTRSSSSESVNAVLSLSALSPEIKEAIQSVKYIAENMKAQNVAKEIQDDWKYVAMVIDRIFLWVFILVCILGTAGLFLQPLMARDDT
rα6/α3β4 nAChRs, sequence (P12392 whole entry, looked up): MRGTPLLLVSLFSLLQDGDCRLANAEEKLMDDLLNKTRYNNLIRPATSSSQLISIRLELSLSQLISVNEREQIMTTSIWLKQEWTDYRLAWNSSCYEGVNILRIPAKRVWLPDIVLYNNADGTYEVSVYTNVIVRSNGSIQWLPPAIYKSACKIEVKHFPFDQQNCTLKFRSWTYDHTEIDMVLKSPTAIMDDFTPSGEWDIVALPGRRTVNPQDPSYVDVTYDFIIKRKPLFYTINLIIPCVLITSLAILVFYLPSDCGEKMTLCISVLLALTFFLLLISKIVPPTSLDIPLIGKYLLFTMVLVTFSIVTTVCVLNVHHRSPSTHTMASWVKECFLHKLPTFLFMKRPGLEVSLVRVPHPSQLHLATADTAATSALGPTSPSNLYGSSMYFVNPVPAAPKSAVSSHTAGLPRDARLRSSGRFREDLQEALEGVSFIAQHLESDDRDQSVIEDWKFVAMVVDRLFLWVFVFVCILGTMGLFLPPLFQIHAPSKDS
rα6/α3β4 nAChRs, sequence (P43143 whole entry, looked up): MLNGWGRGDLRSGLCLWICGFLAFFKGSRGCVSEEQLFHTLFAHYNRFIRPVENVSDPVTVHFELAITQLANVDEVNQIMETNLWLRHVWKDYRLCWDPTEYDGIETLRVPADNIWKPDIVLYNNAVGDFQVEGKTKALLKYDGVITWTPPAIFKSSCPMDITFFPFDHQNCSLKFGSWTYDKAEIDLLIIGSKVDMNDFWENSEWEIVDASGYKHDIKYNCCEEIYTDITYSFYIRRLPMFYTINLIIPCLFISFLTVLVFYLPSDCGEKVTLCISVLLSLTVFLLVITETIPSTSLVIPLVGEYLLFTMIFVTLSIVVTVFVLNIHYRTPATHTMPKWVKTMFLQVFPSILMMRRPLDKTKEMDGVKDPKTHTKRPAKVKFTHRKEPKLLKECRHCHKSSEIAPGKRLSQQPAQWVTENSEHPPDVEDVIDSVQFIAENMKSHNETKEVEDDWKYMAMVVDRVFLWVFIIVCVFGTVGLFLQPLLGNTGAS

## CC[C@H](C)[C@@H]1NC(=O)[C@@H]2CCCN2C(=O)[C@H](CO)NC(=O)[C@H](CCSC)NC(=O)[C@H](C)NC(=O)[C@H](CO)NC(=O)[C@@H]2CSSC[C@H](NC(=O)CN)C(=O)N[C@@H](CSSC[C@@H](C(N)=O)NC(=O)[C@H](C)NC1=O)C(=O)N[C@@H](CO)C(=O)N[C@@H](Cc1c[nH]cn1)C(=O)N1CCC[C@H]1C(=O)N[C@@H](C(C)C)C(=O)N2 [[+15A]TxID] (HELM PEPTIDE1{G.C.C.S.H.P.V.C.S.A.M.S.P.I.A.C.[am]}$PEPTIDE1,PEPTIDE1,2:R3-8:R3|PEPTIDE1,PEPTIDE1,3:R3-16:R3$$$V2.0)
rα6/α3β4 nAChRs
  IC50: 37 nM
rα3β4 nAChRs
  IC50: 3 nM

## CC[C@H](C)[C@@H]1NC(=O)[C@@H]2CCCN2C(=O)[C@H](C)NC(=O)[C@H](CO)NC(=O)[C@H](CCSC)NC(=O)[C@H](C)NC(=O)[C@H](CO)NC(=O)[C@@H]2CSSC[C@H](NC(=O)CN)C(=O)N[C@@H](CSSC[C@@H](C(N)=O)NC1=O)C(=O)N[C@@H](CO)C(=O)N[C@@H](Cc1c[nH]cn1)C(=O)N1CCC[C@H]1C(=O)N[C@@H](C(C)C)C(=O)N2 [[+13A]TxID] (HELM PEPTIDE1{G.C.C.S.H.P.V.C.S.A.M.S.A.P.I.C.[am]}$PEPTIDE1,PEPTIDE1,2:R3-8:R3|PEPTIDE1,PEPTIDE1,3:R3-16:R3$$$V2.0)
rα6/α3β4 nAChRs
  IC50: 64 nM
rα3β4 nAChRs
  IC50: 9.9 nM

## CC[C@H](C)[C@@H]1NC(=O)[C@H](C)NC(=O)[C@@H]2CCCN2C(=O)[C@H](CO)NC(=O)[C@H](CCSC)NC(=O)[C@H](C)NC(=O)[C@H](CO)NC(=O)[C@@H]2CSSC[C@H](NC(=O)CN)C(=O)N[C@@H](CSSC[C@@H](C(N)=O)NC1=O)C(=O)N[C@@H](CO)C(=O)N[C@@H](Cc1c[nH]cn1)C(=O)N1CCC[C@H]1C(=O)N[C@@H](C(C)C)C(=O)N2 [[+14A]TxID] (HELM PEPTIDE1{G.C.C.S.H.P.V.C.S.A.M.S.P.A.I.C.[am]}$PEPTIDE1,PEPTIDE1,2:R3-8:R3|PEPTIDE1,PEPTIDE1,3:R3-16:R3$$$V2.0)
rα6/α3β4 nAChRs
  IC50: 368 nM
rα3β4 nAChRs
  IC50: 37 nM

## CC[C@H](C)[C@@H]1NC(=O)[C@@H]2CCCN2C(=O)[C@H](CO)NC(=O)[C@H](CCSC)NC(=O)[C@H](C)NC(=O)[C@H](CO)NC(=O)[C@H](C)NC(=O)[C@@H]2CSSC[C@H](NC(=O)CN)C(=O)N[C@@H](CSSC[C@@H](C(N)=O)NC1=O)C(=O)N[C@@H](CO)C(=O)N[C@@H](Cc1c[nH]cn1)C(=O)N1CCC[C@H]1C(=O)N[C@@H](C(C)C)C(=O)N2 [[+9A]TxID] (HELM PEPTIDE1{G.C.C.S.H.P.V.C.A.S.A.M.S.P.I.C.[am]}$PEPTIDE1,PEPTIDE1,2:R3-8:R3|PEPTIDE1,PEPTIDE1,3:R3-16:R3$$$V2.0)
rα6/α3β4 nAChRs
  IC50: > 10000 nM
  inhibition of rα6/α3β4 nAChRs in words: no obvious inhibition
rα3β4 nAChRs
  IC50: > 10000 nM
  blocking percentage of rα3β4 nAChRs: less than fifty percent

## CC[C@H](C)[C@@H]1NC(=O)[C@@H]2CCCN2C(=O)[C@H](CO)NC(=O)[C@H](CCSC)NC(=O)[C@H](C)NC(=O)[C@H](C)NC(=O)[C@H](CO)NC(=O)[C@@H]2CSSC[C@H](NC(=O)CN)C(=O)N[C@@H](CSSC[C@@H](C(N)=O)NC1=O)C(=O)N[C@@H](CO)C(=O)N[C@@H](Cc1c[nH]cn1)C(=O)N1CCC[C@H]1C(=O)N[C@@H](C(C)C)C(=O)N2 [[+10A]TxID] (HELM PEPTIDE1{G.C.C.S.H.P.V.C.S.A.A.M.S.P.I.C.[am]}$PEPTIDE1,PEPTIDE1,2:R3-8:R3|PEPTIDE1,PEPTIDE1,3:R3-16:R3$$$V2.0)
rα6/α3β4 nAChRs
  IC50: 1130 nM
rα3β4 nAChRs
  IC50: > 10000 nM

## CC[C@H](C)[C@@H]1NC(=O)[C@@H]2CCCN2C(=O)[C@H](CO)NC(=O)[C@H](C)NC(=O)[C@H](CCSC)NC(=O)[C@H](C)NC(=O)[C@H](CO)NC(=O)[C@@H]2CSSC[C@H](NC(=O)CN)C(=O)N[C@@H](CSSC[C@@H](C(N)=O)NC1=O)C(=O)N[C@@H](CO)C(=O)N[C@@H](Cc1c[nH]cn1)C(=O)N1CCC[C@H]1C(=O)N[C@@H](C(C)C)C(=O)N2 [[+12A]TxID] (HELM PEPTIDE1{G.C.C.S.H.P.V.C.S.A.M.A.S.P.I.C.[am]}$PEPTIDE1,PEPTIDE1,2:R3-8:R3|PEPTIDE1,PEPTIDE1,3:R3-16:R3$$$V2.0)
rα6/α3β4 nAChRs
  IC50: 34 nM
rα3β4 nAChRs
  IC50: 49 nM
